51 compounds from ChEMBL document CHEMBL1697821, “Development of a phospholipidosis database and predictive quantitative structure-activity relationship (QSAR) models” (Toxicol Mech Methods, 2008) can be followed below.

The data set concerns Phospholipidosis. Nature of the data set: Literature-mined public compounds from Kruhlak et al phospholipidosis modelling dataset.
In the case of `CN(C)CCCN(C)[C@H]1CC[C@H]2[C@@H]3CC=C4C[C@@H](O)CC[C@]4(C)[C@H]3CC[C@]12C` [AZACOSTEROL], the Phospholipidosis result is “Positive: strong inducer confirmed by electron microscopy”.

With `CC(=O)OC[C@H]1O[C@@H](n2ncc(=O)[nH]c2=O)[C@H](OC(C)=O)[C@@H]1OC(C)=O` [AZARIBINE], the Phospholipidosis entry is reported as “Negative: based on the absence of positive reported data from WMDD”.

For the compound `CN1CCN(CCCCN2C(=O)CN(/N=C/c3ccc(-c4ccc(Cl)cc4)o3)C2=O)CC1.Cl.Cl` [AZIMILIDE DIHYDROCHLORIDE], the Phospholipidosis entry was “Positive: weak inducer based on presence of foamy macrophages and cytoplasmic vacuolations”.

For `CC[C@H]1OC(=O)[C@H](C)[C@@H](O[C@H]2C[C@@](C)(OC)[C@@H](O)[C@H](C)O2)[C@H](C)[C@@H](O[C@@H]2O[C@H](C)C[C@H](N(C)C)[C@H]2O)[C@](C)(O)C[C@@H](C)CN(C)[C@H](C)[C@@H](O)[C@]1(C)O` [AZITHROMYCIN], the Phospholipidosis entry was “Positive: weak inducer based on presence of foamy macrophages and cytoplasmic vacuolations”.

For `CCC1(CC)C(=O)NC(=O)NC1=O` [BARBITAL], the Phospholipidosis entry is listed as “Negative: based on the absence of positive reported data from WMDD”.

Regarding `NC[C@H]1O[C@H](O[C@H]2[C@H](O)[C@@H](O[C@H]3O[C@H](CO)[C@@H](O)[C@H](N)[C@H]3O)[C@H](N)C[C@@H]2N)[C@H](N)[C@@H](O)[C@@H]1O` [BEKANAMYCIN], the Phospholipidosis result is given as “Negative: based on the absence of positive reported data from WMDD”.

For the compound `NS(=O)(=O)c1cc2c(cc1C(F)(F)F)NC(Cc1ccccc1)NS2(=O)=O` (stereo unspecified) [BENDROFLUMETHIAZIDE], the Phospholipidosis entry is on record as “Negative: based on the absence of positive reported data from WMDD”.

On to `CC(=O)Nc1ccc(OC(=O)c2ccccc2OC(C)=O)cc1` [BENORILATE], for which the Phospholipidosis result is on record as “Negative: based on the absence of positive reported data from WMDD”.

For the compound `NC(=O)c1ccccc1` [BENZAMIDE], the Phospholipidosis result is “Positive: weak inducer based on presence of foamy macrophages and cytoplasmic vacuolations”.

Take `CCN(CC)C(=O)C1CN2CCc3cc(OC)c(OC)cc3C2CC1OC(C)=O` (stereo unspecified) [BENZQUINAMIDE]: the Phospholipidosis entry is recorded as “Negative: based on the absence of positive reported data from WMDD”.

Take `CN1[C@@H]2CC[C@H]1C[C@@H](OC(c1ccccc1)c1ccccc1)C2` [BENZTROPINE]: the Phospholipidosis entry was “Negative: based on the absence of positive reported data from WMDD”.

Regarding `OCc1ccccc1` [BENZYL ALCOHOL], the Phospholipidosis result is “Negative: based on the absence of positive reported data from WMDD”.

For `C[N+](C)(CCOc1ccccc1)Cc1ccccc1.O=C([O-])c1cc2ccccc2cc1O` [BEPHENIUM HYDROXYNAPHTHOATE], the Phospholipidosis result is on record as “Negative: based on the absence of positive reported data from WMDD”.

For `CC(C)COCC(CN(Cc1ccccc1)c1ccccc1)N1CCCC1` (stereo unspecified) [BEPRIDIL], the Phospholipidosis result was “Negative: based on the absence of positive reported data from WMDD”.

`CC1=C(/C=C/C(C)=C/C=C/C(C)=C/C=C/C=C(C)/C=C/C=C(C)/C=C/C2=C(C)CCCC2(C)C)C(C)(C)CCC1` [BETA CAROTENE]: the Phospholipidosis result was “Negative: based on the absence of positive reported data from WMDD”.

`C[N+](C)(C)CC(=O)O` [BETAINE]: the Phospholipidosis entry is “Negative: based on the absence of positive reported data from WMDD”.

As to `CC(=O)OCC(=O)[C@@]1(O)[C@@H](C)C[C@H]2[C@@H]3CCC4=CC(=O)C=C[C@]4(C)[C@@]3(F)[C@@H](O)C[C@@]21C` [BETAMETHASONE ACETATE], the Phospholipidosis result was “Negative: based on the absence of positive reported data from WMDD”.

Consider `CC(=O)OCC(=O)[C@@]1(OC(=O)C(C)C)[C@@H](C)C[C@H]2[C@@H]3CCC4=CC(=O)C=C[C@]4(C)[C@@]3(F)[C@@H](O)C[C@@]21C` [BETAMETHASONE ACIBUTATE], for which the Phospholipidosis result is reported as “Negative: based on the absence of positive reported data from WMDD”.

As to `CC(C)NCC(O)COc1ccc(CCOCC2CC2)cc1` (stereo unspecified) [BETAXOLOL], the Phospholipidosis entry is reported as “Negative: based on the absence of positive reported data from WMDD”.

Take `C/N=C(\NC)NCc1ccccc1` [BETHANIDINE]: the Phospholipidosis result is reported as “Negative: based on the absence of positive reported data from WMDD”.

`C=CC1=C(C)/C(=C/c2[nH]c(Cc3[nH]c(/C=C4\NC(=O)C(C)=C4C=C)c(C)c3CCC(=O)O)c(CCC(=O)O)c2C)NC1=O` [BILIRUBIN]: the Phospholipidosis result is “Positive: strong inducer confirmed by electron microscopy”.

As for `CC(=O)Oc1ccc(C(c2ccc(OC(C)=O)cc2)c2ccccn2)cc1` [BISACODYL], the Phospholipidosis result is given as “Negative: based on the absence of positive reported data from WMDD”.

In the case of `FC(F)(F)c1ccc(-c2ccc(OCCN3CCCC3)cc2)cc1` [BOXIDINE], the Phospholipidosis result was “Positive: strong inducer confirmed by electron microscopy”.

Regarding `CC[N+](C)(C)Cc1ccccc1Br.Cc1ccc(S(=O)(=O)[O-])cc1` [BRETYLIUM TOSYLATE], the Phospholipidosis result is reported as “Negative: based on the absence of positive reported data from WMDD”.

On to `CN(Cc1cc(Br)cc(Br)c1N)C1CCCCC1` [BROMHEXINE], for which the Phospholipidosis result was “Positive: weak inducer based on presence of foamy macrophages and cytoplasmic vacuolations”.

Take `O=S(=O)(O)c1ccc(/N=N/c2cc(CO)c(O)c(/N=N/c3ccc(S(=O)(=O)O)c4ccccc34)c2O)c2ccccc12` [BROWN HT]: the Phospholipidosis entry is recorded as “Negative: based on the absence of positive reported data from WMDD”.

Consider `CC(C)(C)c1ccc(CN2CCN(C(c3ccccc3)c3ccc(Cl)cc3)CC2)cc1` (stereo unspecified) [BUCLIZINE], for which the Phospholipidosis entry is given as “Negative: based on the absence of positive reported data from WMDD”.

Turning to `O=C(O)CCC(=O)c1ccc(C2CCCCC2)c(Cl)c1` [BUCLOXIC ACID], the Phospholipidosis entry is recorded as “Negative: based on the absence of positive reported data from WMDD”.

`CC(C)(C)NCC(O)COc1ccccc1C#N` (stereo unspecified) [BUNITROLOL]: the Phospholipidosis result is given as “Negative: based on the absence of positive reported data from WMDD”.

For `Cc1ccc(Cl)c(OCC(O)CNC(C)(C)C)c1` (stereo unspecified) [BUPRANOLOL], the Phospholipidosis entry is given as “Negative: based on the absence of positive reported data from WMDD”.

In the case of `O=C1CC2(CCCC2)CC(=O)N1CCCCN1CCN(c2ncccn2)CC1` [BUSPIRONE], the Phospholipidosis entry was “Negative: confirmed by electron microscopy”.

With `CCCCN(CCCC)CCNc1nc(-c2ccccc2)no1` [BUTALAMINE], the Phospholipidosis result is recorded as “Negative: based on the absence of positive reported data from WMDD”.

As for `C=CCC1(CC(C)C)C(=O)NC(=O)NC1=O` [BUTALBITAL], the Phospholipidosis result was “Negative: based on the absence of positive reported data from WMDD”.

For `CCCC(=O)c1ccc2c(c1)N(CCCN1CCN(C)CC1)c1ccccc1S2` [BUTAPERAZINE], the Phospholipidosis result was “Negative: based on the absence of positive reported data from WMDD”.

Consider `Oc1ccc2c(c1)[C@@]13CCCC[C@@]1(O)[C@@H](C2)N(CC1CCC1)CC3` [BUTORPHANOL], for which the Phospholipidosis entry was “Negative: based on the absence of positive reported data from WMDD”.

Turning to `Cn1c(=O)c2c(ncn2C)n(C)c1=O` [CAFFEINE], the Phospholipidosis result is recorded as “Negative: confirmed by electron microscopy”.

`C=C1/C(=C\C=C2/CCC[C@]3(C)[C@@H]([C@H](C)CCCC(C)(C)O)CC[C@@H]23)C[C@@H](O)C[C@@H]1O` [CALCITRIOL]: the Phospholipidosis entry is listed as “Negative: based on the absence of positive reported data from WMDD”.

`NC(=O)N1c2ccccc2C=Cc2ccccc21` [CARBAMAZEPINE]: the Phospholipidosis result is “Negative: confirmed by electron microscopy”.

For `CN1CC(O)C2=C/C(=N/NC(N)=O)C(=O)C=C21` (stereo unspecified) [CARBAZOCHROME], the Phospholipidosis entry is “Negative: based on the absence of positive reported data from WMDD”.

Turning to `CN(C)CCOC(c1ccc(Cl)cc1)c1ccccn1` (stereo unspecified) [CARBINOXAMINE], the Phospholipidosis result is recorded as “Negative: based on the absence of positive reported data from WMDD”.

On to `N[C@@H](CSCC(=O)O)C(=O)O` [CARBOCYSTEINE], for which the Phospholipidosis result is reported as “Negative: based on the absence of positive reported data from WMDD”.

For `CCC(Br)(CC)C(=O)NC(N)=O` [CARBROMAL], the Phospholipidosis result is “Negative: based on the absence of positive reported data from WMDD”.

With `CCCCNC(=O)NS(=O)(=O)c1ccc(N)cc1` [CARBUTAMIDE], the Phospholipidosis result is “Negative: based on the absence of positive reported data from WMDD”.

On to `O=NN(CCCl)C(=O)NCCCl` [CARMUSTINE], for which the Phospholipidosis entry is listed as “Negative: based on the absence of positive reported data from WMDD”.

Take `C=CC1=C(C(=O)O)N2C(=O)[C@@H](NC(=O)/C(=N\OCC(=O)O)c3csc(N)n3)[C@H]2SC1` [CEFIXIME]: the Phospholipidosis result is reported as “Negative: based on the absence of positive reported data from WMDD”.

As to `CO[C@@]1(NC(=O)C2SC(=C(C(N)=O)C(=O)O)S2)C(=O)N2C(C(=O)O)=C(CSc3nnnn3C)CS[C@@H]21` (stereo partly specified) [CEFOTETAN], the Phospholipidosis result is “Negative: based on the absence of positive reported data from WMDD”.

Regarding `NC(=O)c1cc[n+](CC2=C(C(=O)O)N3C(=O)[C@@H](NC(=O)[C@@H](c4ccccc4)S(=O)(=O)[O-])[C@H]3SC2)cc1` [CEFSULODIN], the Phospholipidosis entry is “Negative: based on the absence of positive reported data from WMDD”.

Turning to `CC(C)(O/N=C(\C(=O)N[C@@H]1C(=O)N2C(C(=O)[O-])=C(C[n+]3ccccc3)CS[C@H]12)c1csc(N)n1)C(=O)O` [CEFTAZIDIME], the Phospholipidosis result is “Negative: based on the absence of positive reported data from WMDD”.

For the compound `O=C(Cn1cnnn1)N[C@@H]1C(=O)N2C(C(=O)O)=C(CSc3nncs3)CS[C@H]12` [CEFTEZOLE], the Phospholipidosis entry is reported as “Negative: based on the absence of positive reported data from WMDD”.

For the compound `CO/N=C(\C(=O)N[C@@H]1C(=O)N2C(C(=O)O)=C(CSc3nc(=O)c(=O)[nH]n3C)CS[C@H]12)c1csc(N)n1` [CEFTRIAXONE], the Phospholipidosis entry is “Negative: based on the absence of positive reported data from WMDD”.

As to `CC(=O)OCC1=C(C(=O)O)N2C(=O)[C@@H](NC(=O)[C@H](N)c3ccccc3)[C@H]2SC1` [CEPHALOGLYCIN], the Phospholipidosis entry was “Negative: based on the absence of positive reported data from WMDD”.
